# Laboratory results taken from patent US20090246787A1, “METHOD AND APPARATUS FOR DETERMINING CHEMOSENSITIVITY” (SYSMEX CORPORATION, priority 2008, published 2009).
# Read-outs that look alike come from different tables or passages of the source.
# Key:
# [1] = test system: CAMA-1 cells; assay: MTT living-cell assay, doxorubicin IC50; assay type: cell-based; settings: Homo sapiens, 72 h, cultured 3 days with doxorubicin, MTT method, read-out: IC50 class (chemosensitivity estimated by IC50)
# Description: CAMA-1 cells were cultured in 5 vol % CO2 at 37° C., in an Eagle minimum essential medium containing Earle's BSS, 2 mM of L-glutamine, 1.0 mM of sodium pyruvate, 0.1 mM of nonessential amino acids, 1.5 g/L of sodium bicarbonate and 10% by mass of fetal bovine serum.
# (§1) Each of the breast cancer cell lines, that is, HS 578T cells, MDA-MB-435S cells, BT20 cells, CAMA-1 cells, T47D cells, MDA-MB-361 cells, UACC893 cells and BT474 cells, was diluted stepwise to produce 7 serial cell dilutions.
# (§2) The number of living cells in each of the cultures thus obtained was determined by an MTT method of using 3-(4,5-dimethylthiazol-2-yl)-2,5-diphenyl-2H-tetrazolium bromide. The number of living cells to be inoculated was established for each type of cell so as to enable the influence of the drug to be evaluated in the measurement range where the primary correlation between the number of cells in the serial dilution to be inoculated and the determined number of the living cells was kept high.
# Thereafter, the number of living cells in each of the cultures thus obtained was measured by the MTT method of using 3-(4,5-dimethylthiazol-2-yl)-2,5-diphenyl-2H-tetrazolium bromide. This measurement was conducted 4 times. […]
# [2] = test system: BT474 cells; assay: MTT living-cell assay, doxorubicin IC50; assay type: cell-based; settings: Homo sapiens, BT-474, 72 h, cultured 3 days with doxorubicin, MTT method, read-out: IC50 class (chemosensitivity estimated by IC50)
# Description: BT-474 cells were cultured in 5 vol % CO2 at 37° C., in a Dulbecco's modified medium containing 10% by mass of fetal bovine serum.
# as §1, §2
# Thereafter, the number of living cells in each of the cultures thus obtained was measured by the MTT method of using 3-(4,5-dimethylthiazol-2-yl)-2,5-diphenyl-2H-tetrazolium bromide. This measurement was conducted 4 times.
# On the basis of the determined number of living cells, the concentration of doxorubicin (IC50) at which the ratio of the number of living cells in the culture not treated with doxorubicin to the number of living cells in the culture treated with doxorubicin became 50% was determined.
# [3] = test system: T47D cells; assay: MTT living-cell assay, doxorubicin IC50; assay type: cell-based; settings: Homo sapiens, 72 h, cultured 3 days with doxorubicin, MTT method, read-out: IC50 class (chemosensitivity estimated by IC50)
# Description: (§3) Human breast cancer cell lines, that is, HS 578T cells (ATCC HTB-126R), MDA-MB-435s cells (ATCC HTB-129), BT20 cells (ATCC HTB-19), CAMA-1 cells (ATCC HTB-21), T47D cells (ATCC HTB-133), MDA-MB-361 cells (ATCC HTB-27), UACC893 cells (ATCC CRL-1902) and BT474 cells (ATCC HTB-20) were purchased from American Type Culture Collection (ATCC) and cultured under culture conditions recommended by ATCC, as follow.
# T-47D cells were cultured in 5 vol % CO2 at 37° C., in an RPMI 1640 medium containing 2 mM of L-glutamine, 1.0 mM of HEPES, 1.0 mM of sodium pyruvate, 4.5 g/L of glucose, 1.5 g/L of sodium bicarbonate, 10% by mass of fetal bovine serum and 0.2 unit/mL of bovine insulin. […]
# as §2
# (§4) Thereafter, the number of living cells in each of the cultures thus obtained was measured by the MTT method of using 3-(4,5-dimethylthiazol-2-yl)-2,5-diphenyl-2H-tetrazolium bromide. […]
# [4] = test system: MDA-MB-361 cells; assay: MTT living-cell assay, doxorubicin IC50; assay type: cell-based; settings: Homo sapiens, 72 h, cultured 3 days with doxorubicin, MTT method, read-out: IC50 class (chemosensitivity estimated by IC50)
# [5] = test system: CDK1; settings: 100 nM doxorubicin, 24 hours
# [6] = test system: MDA-MB-435S cells; assay: MTT living-cell assay, doxorubicin IC50; assay type: cell-based; settings: Homo sapiens, 72 h, cultured 3 days with doxorubicin, MTT method, read-out: IC50 class (chemosensitivity estimated by IC50)
# [7] = test system: CDK1; settings: 100 nM doxorubicin, 24 hours; remark: listed apart in the source
# [8] = test system: UACC893 cells; assay: MTT living-cell assay, doxorubicin IC50; assay type: cell-based; settings: Homo sapiens, UACC-893, 72 h, cultured 3 days with doxorubicin, MTT method, read-out: IC50 class (chemosensitivity estimated by IC50)
# [9] = used generally in chemotherapy; cited from earlier work
# [10] = test system: BT20 cells; assay: MTT living-cell assay, doxorubicin IC50; assay type: cell-based; settings: Homo sapiens, BT-20, 72 h, cultured 3 days with doxorubicin, MTT method, read-out: IC50 class (chemosensitivity estimated by IC50)
# Description: as §3
# BT-20 cells were cultured in 5 vol % CO2 at 37° C., in an Eagle minimum essential medium containing Earle's BSS, 2 mM of L-glutamine, 1.0 mM of sodium pyruvate, 0.1 mM of nonessential amino acids, 1.5 g/L of sodium bicarbonate and 10% by mass of fetal bovine serum. […]
# as §2, §4
# [11] = test system: HS 578T cells; assay: MTT living-cell assay, doxorubicin IC50; assay type: cell-based; settings: Homo sapiens, 72 h, cultured 3 days with doxorubicin, MTT method, read-out: IC50 class (chemosensitivity estimated by IC50)
# Description: as §3
# HS 578T cells were cultured in 5 vol % CO2 at 37° C., in a Dulbecco's modified Eagle medium containing 4 mM of L-glutamine, 10% by mass of fetal bovine serum and 0.01 mg/L of bovine insulin, with glucose at a final concentration of 4.5 g/L and sodium bicarbonate at a final concentration of 1.5/L. […]
# as §2, §4
structure (smiles),measurement,setting,value
COc1cccc2c1C(=O)c1c(O)c3c(c(O)c1C2=O)C[C@@](O)(C(=O)CO)C[C@@H]3O[C@H]1C[C@H](N)[C@H](O)[C@H](C)O1 [doxorubicin],IC50,[1],< 200 nM
same,IC50,[2],> 200 nM
same,IC50,[3],> 200 nM
same,IC50,[4],> 200 nM
same,difference of CDK1 activity level (not treated − treated with doxorubicin),[5]; BT20 cells,great difference
same,ratio of CDK1 activity level (treated with doxorubicin / not treated),[5]; BT20 cells,low
same,difference of CDK1 activity level (not treated − treated with doxorubicin),[5]; BT474 cells,"a little difference, or a minus difference"
same,ratio of CDK1 activity level (treated with doxorubicin / not treated),[5]; BT474 cells,high
same,difference of CDK1 activity level (not treated − treated with doxorubicin),[5]; CAMA-1 cells,great difference
same,ratio of CDK1 activity level (treated with doxorubicin / not treated),[5]; CAMA-1 cells,low
same,difference of CDK1 activity level (not treated − treated with doxorubicin),[5]; HS 578T cells,great difference
same,ratio of CDK1 activity level (treated with doxorubicin / not treated),[5]; HS 578T cells,low
same,difference of CDK1 activity level (not treated − treated with doxorubicin),[5]; MDA-MB-361 cells,"a little difference, or a minus difference"
same,ratio of CDK1 activity level (treated with doxorubicin / not treated),[5]; MDA-MB-361 cells,high
same,difference of CDK1 activity level (not treated − treated with doxorubicin),[5]; MDA-MB-435S cells,great difference
same,ratio of CDK1 activity level (treated with doxorubicin / not treated),[5]; MDA-MB-435S cells,low
same,difference of CDK1 activity level (not treated − treated with doxorubicin),[5]; T47D cells,"a little difference, or a minus difference"
same,ratio of CDK1 activity level (treated with doxorubicin / not treated),[5]; T47D cells,high
same,difference of CDK1 activity level (not treated − treated with doxorubicin),[5]; UACC893 cells,"a little difference, or a minus difference"
same,ratio of CDK1 activity level (treated with doxorubicin / not treated),[5]; UACC893 cells,high
same,IC50,[6],< 200 nM
same,difference of CDK1 specific activity (not treated − treated with doxorubicin),[7]; BT20 cells,high
same,ratio of CDK1 specific activity (treated with doxorubicin / not treated),[7]; BT20 cells,low
same,difference of CDK1 specific activity (not treated − treated with doxorubicin),[7]; BT474 cells,"a little difference, or a minus difference"
same,ratio of CDK1 specific activity (treated with doxorubicin / not treated),[7]; BT474 cells,high
same,difference of CDK1 specific activity (not treated − treated with doxorubicin),[7]; CAMA-1 cells,high
same,ratio of CDK1 specific activity (treated with doxorubicin / not treated),[7]; CAMA-1 cells,low
same,difference of CDK1 specific activity (not treated − treated with doxorubicin),[7]; HS 578T cells,high
same,ratio of CDK1 specific activity (treated with doxorubicin / not treated),[7]; HS 578T cells,low
same,difference of CDK1 specific activity (not treated − treated with doxorubicin),[7]; MDA-MB-361 cells,"a little difference, or a minus difference"
same,ratio of CDK1 specific activity (treated with doxorubicin / not treated),[7]; MDA-MB-361 cells,high
same,difference of CDK1 specific activity (not treated − treated with doxorubicin),[7]; MDA-MB-435S cells,high
same,ratio of CDK1 specific activity (treated with doxorubicin / not treated),[7]; MDA-MB-435S cells,low
same,difference of CDK1 specific activity (not treated − treated with doxorubicin),[7]; T47D cells,"a little difference, or a minus difference"
same,ratio of CDK1 specific activity (treated with doxorubicin / not treated),[7]; T47D cells,high
same,difference of CDK1 specific activity (not treated − treated with doxorubicin),[7]; UACC893 cells,"a little difference, or a minus difference"
same,ratio of CDK1 specific activity (treated with doxorubicin / not treated),[7]; UACC893 cells,high
same,IC50,[8],> 200 nM
same,effective blood concentration,[9],about 200 nM
same,IC50,[10],< 200 nM
same,IC50,[11],< 200 nM
